Source: patent publication US20220152100A1, “METHODS FOR CONTROLLED ACTIVATION OR ELIMINATION OF THERAPEUTIC CELLS” (Bellicum Pharmaceuticals, Inc., priority 2014, published 2022)

Test system: gene-modified allodepleted cells (SFG.iCasp9.2A.CD19)
Test: AP20187-induced apoptosis of gene-modified allodepleted T cells (annexin V/7-AAD)
Format: cell-based, human
Procedure: Suicide gene functionality was assessed by adding a small molecule synthetic homodimerizer, AP20187 (Ariad Pharmaceuticals; Cambridge, Mass.), at 10 nM final concentration the day following CD19 immunomagnetic selection. Cells were stained with annexin V and 7-amino-actinomycin (7-AAD)(BD Pharmingen) at 24 hours and analyzed by flow cytometry. Cells negative for both annexin V and 7-AAD were considered viable, cells that were annexin V positive were apoptotic, and cells that were both annexin V and 7-AAD positive were necrotic. The percentage killing induced by dimerization was corrected for baseline viability as follows: Percentage killing=100%−(% Viability in AP20187-treated cells÷% Viability in non-treated cells).
Cells were maintained in T cell medium containing 50 U/ml IL-2 until 22 days after transduction. A portion of cells was reactivated on 24-well plates coated with […] OKT3 and 1 μg/ml anti-CD28 (Clone CD28.2, BD Pharmingen, San Jose, Calif.) for 48 to 72 hours. CD19 expression and suicide gene function in both reactivated and non-reactivated cells were measured on day 24 or 25 post transduction.
The day following immunomagnetic selection, 10 nM of the chemical inducer of dimerization, AP20187, was added to induce apoptosis, which appeared within 24 hours. […] Killing efficiency after correction for baseline viability was about 92.9%±3.8%. Large-scale CD19 selection produced cells that were killed with similar efficiency as small-scale selection: mean viability with and without AP20187, and percentage killing, in large and small scale were about 3.9%, about 84.0%, about 95.4% (n=3) and about 6.6%, about 79.3%, about 91.4% (n=5) respectively. AP20187 was non-toxic to non-transduced cells: viability with and without AP20187 was about 86%±9% and 87%±8% respectively (n=6).
To assess the stability of transgene expression and function, cells were maintained in T cell culture medium and low dose IL-2 (50 U/ml) until […] after transduction. A portion of cells was then reactivated with OKT3/anti-CD28. CD19 expression was analyzed by flow cytometry 48 to 72 hours later, and suicide gene function was assessed by treatment with 10 nM AP20187. The obtained are for cells from day 5 post transduction (ie, 1 day after CD 19 selection) and day 24 post transduction, with or without 48-72 hours of reactivation (5 experiments). In 2 experiments, CD25 selection was performed after OKT3/aCD28 activation to further enrich activated cells. Error bars represent standard deviation. * indicates p<0.05 when compared to cells from day 5 post transduction. By day 24, surface CD19 expression fell from about 98%±1% to about 88%±4% (p<0.05) with a parallel decrease in mean fluorescence intensity (MFI) from 793±128 to 478±107 (p<0.05) (see FIG. 13B). Similarly, there was a significant reduction in suicide gene function: residual viability was 19.6±5.6% following treatment with AP20187; after correction for baseline viability of 54.8±20.9%, this equated to killing efficiency of only 63.1±6.2%.
To determine whether the decrease in transgene expression with time was due to reduced transcription following T cell quiescence or to elimination of transduced cells, a portion of cells were reactivated on day 22 post transduction with OKT3 and anti-CD28 antibody. […] CD19 expression increased from about 88%±4% to about 93%±4% (p<0.01) and CD19 MFI increased from 478±107 to 643±174 (p<0.01). […] Killing of the CD25 negative fraction was 78.6±9.1%.

[1] = 10 nM, 24 hours, day after CD19 selection

`CC[C@H](C(=O)N1CCCC[C@H]1C(=O)O[C@H](CCc1ccc(OC)c(OC)c1)c1cccc(OCC(=O)NCC(CNC(=O)COc2cccc([C@@H](CCc3ccc(OC)c(OC)c3)OC(=O)[C@@H]3CCCCN3C(=O)[C@@H](CC)c3cc(OC)c(OC)c(OC)c3)c2)CN(C)C)c1)c1cc(OC)c(OC)c(OC)c1` [AP20187] was tested, and the “killing efficiency after correction for baseline viability” value [1] was “about 92.9%±3.8”, the “viable cells (annexin V and 7-AAD negative)” value [1] was “about 5.5%±2.5” and the killing efficiency (OKT3/aCD28-reactivated cells, day 24 or 25) was ~84.6%±8.0. For the same molecule, the mean viability (small-scale CD19 selection, n=5) was “about 6.6%” and the “viability of non-transduced cells” value (with AP20187, n=6) was “about 86%±9”.
